From article PMC3644400 (Investigational New Drugs, 2012)
Like-named read-outs stand apart in the source and are kept apart here.

Columns and labels:
HER2 = settings: read-out: IC50 HER2; cited from earlier work
clinical = settings: human, in vivo
[1] = Phase I dose escalation: MTD and dose-limiting toxicity; format: in vivo, patients
Method: Docetaxel was initiated at 60 mg/m^2 IV infusion and increased to 75 mg/m^2 IV infusion in the absence of DLT.
A standard ‘3 + 3’ design was used. The MTD was defined as the highest dose of afatinib at which no more than one out of six patients experienced a DLT. Once the MTD was determined, a further 12 evaluable patients were included at the MTD level.

[2] = Plasma pharmacokinetics (HPLC tandem-mass spectrometry); settings: MTD group
ErbB4 = settings: read-out: IC50 ErbB4; cited from earlier work
[3] = human, in vivo
advanced NSCLC = settings: cited from earlier work; for response rate: advanced NSCLC
[4] = docetaxel (day 1) followed by intermittent erlotinib (days 2–16 every 3 weeks), previously treated advanced NSCLC; cited from earlier work
advanced solid tumors = settings: intermittent high-dose gefitinib given prior to docetaxel; cited from earlier work

## CN(C)C/C=C/C(=O)Nc1cc2c(Nc3ccc(F)c(Cl)c3)ncnc2cc1O[C@H]1CCOC1 [afatinib]
HER2
  IC50: 14 nM
clinical
  Tmax: 4.03 h
clinical; 75 mg/m2
  AUC(0-t): 879 ng·h/mL
clinical; Afatinib Cmax, gMean
  Cmax: 71.4 ng/mL
clinical; Afatinib Vz/F, gMean
  Vd/F: 1500 L
[1]; afatinib days 2–4 with docetaxel 75 mg/m^2 day 1, 3-week cycles
  maximum tolerated dose (MTD) of afatinib: 90 mg/day
[1]; once daily for 3 days following docetaxel 75 mg/m^2
  MTD and recommended phase II dose of afatinib: 90 mg
[2]; human, in vivo, Afatinib tmax, median, treatment cycle 1 (n = 13)
  Tmax: 3 h
ErbB4
  IC50: […]

## CC(=O)O[C@@]12CO[C@@H]1C[C@H](O)[C@@]1(C)C(=O)[C@H](O)C3=C(C)[C@@H](OC(=O)[C@H](O)[C@@H](NC(=O)OC(C)(C)C)c4ccccc4)C[C@@](O)([C@@H](OC(=O)c4ccccc4)[C@H]21)C3(C)C [docetaxel]
clinical
  half-life: 20.9 h
clinical; Docetaxel AUC0–24, gMean
  AUC(0-t): 2630 ng·h/mL
clinical; Docetaxel CL, gMean
  clearance: 712 mL/min
clinical; Docetaxel Cmax, gMean
  Cmax: 2070 ng/mL
clinical; Docetaxel VSS, gMean
  Vd: 488 L
clinical; Docetaxel Vz, gMean
  Vd: 1290 L
clinical; Docetaxel tmax, median
  Tmax: 1 h
clinical; iv, 75 mg/m2
  AUC(0-inf): 3160 ng·h/mL
[2]; treatment cycle 2 (n = 8)
  Docetaxel AUC0–∞, gMean: 3260 ng·h/mL
  Docetaxel t1/2, gMean: 21.1 h
[3]
  Docetaxel AUC0–24, gMean: 2680 ng·h/mL
  Docetaxel AUC0–∞, gMean ratio cycle 2 to cycle 1: 118%
  Docetaxel CL, gMean: 682 mL/min
  Docetaxel Cmax, gMean: 2200 ng/mL
  Docetaxel Cmax, gMean ratio cycle 2 to cycle 1: 115%
  Docetaxel VSS, gMean: 487 L
  Docetaxel Vz, gMean: 1250 L
  Docetaxel tmax, median: 1.00 h

## C#Cc1cccc(Nc2ncnc3cc(OCCOC)c(OCCOC)cc23)c1 [erlotinib]
Advanced NSCLC; chemotherapy followed by erlotinib
  response rate: 28%
Advanced NSCLC; docetaxel (day 1) followed by intermittent erlotinib (days 2–16 every 3 weeks), previously treated advanced NSCLC
  objective response rate: 35%
Advanced NSCLC; high-dose erlotinib (days 1 and 2) with carboplatin and paclitaxel (day 3)
  response rate: 34%
Advanced NSCLC; low-dose erlotinib, same schedule with carboplatin and paclitaxel
  response rate: 18%
[4]
  grade 3/4 neutropenia: 60%

## COc1cc2ncnc(Nc3ccc(F)c(Cl)c3)c2cc1OCCCN1CCOCC1 [gefitinib]
Advanced solid tumors
  objective response rate: 11%
